Measurements reported in EP4667467A1, “PROTAC DEGRADERS OF MLLT1 AND/OR MLLT3” (Dark Blue Therapeutics Ltd, priority 2024, dated 2025).

Target: T1, MLLT1 (Homo sapiens, UniProt Q03111)
T1 construct: endogenous in cells; host or cells: MV4-11 (ATCC CRL-9591)
T1 sequence (Q03111 1-559): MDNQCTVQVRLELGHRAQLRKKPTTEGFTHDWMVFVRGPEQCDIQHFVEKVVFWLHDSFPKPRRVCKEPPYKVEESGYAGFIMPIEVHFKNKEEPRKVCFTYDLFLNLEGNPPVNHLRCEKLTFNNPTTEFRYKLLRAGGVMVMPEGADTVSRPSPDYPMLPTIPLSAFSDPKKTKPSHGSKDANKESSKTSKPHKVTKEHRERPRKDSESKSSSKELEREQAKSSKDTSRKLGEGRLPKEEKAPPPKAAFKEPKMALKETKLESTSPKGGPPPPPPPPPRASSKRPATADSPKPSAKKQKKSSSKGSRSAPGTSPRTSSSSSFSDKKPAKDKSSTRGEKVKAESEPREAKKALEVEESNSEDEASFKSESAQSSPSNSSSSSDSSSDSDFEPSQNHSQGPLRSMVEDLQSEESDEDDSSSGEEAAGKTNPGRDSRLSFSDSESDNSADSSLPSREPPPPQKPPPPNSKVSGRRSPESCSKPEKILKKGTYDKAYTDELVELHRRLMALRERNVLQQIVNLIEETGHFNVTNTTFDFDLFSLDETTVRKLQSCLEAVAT
Assay: MLLT1 Degradation Assay (JESS automated chemiluminescent detection, MV4-11 cells)
Type: cell-based
Settings: 24h, with respect to DMSO control; for MLLT1 % Degradation @ 0.01 µM: 0.01 µM (10 nM) test compound; for MLLT1 % Degradation @ 0.1 µM: 0.1 µM (100 nM) test compound; for MLLT 1 % Degradation @ 1 µM: 1 µM (1000 nM) test compound
Description: MLLT1 degradation efficacy of compounds were tested in an automated chemiluminescent detection system (JESS, Cat# 004-650). […] 10 mM DMSO stocks were prepared, and cells were treated with three concentrations of test compounds viz. 1000, 100 and 10 nM at a final DMSO concentration of 0.1% and incubated for 24h at 37°C, 5% CO2. […] Post run, data were analysed using "Compass for SW" software for chemiluminescent detection. The peak area for each band was used for the calculation of MLLT1 degradation with respect to DMSO control. Data is shown as "MLLT1 % degradation".

Compound | MLLT1 % Degradation @ 0.1 µM | MLLT 1 % Degradation @ 1 µM | MLLT1 % Degradation @ 0.01 µM
3-(1-(3-(1-(2-(2,6-dioxopiperidin-3-yl)-1,3-dioxoisoindolin-4-yl)piperidin-4-yl)propyl)-1H-pyrazol-4-yl)-N-(2-((R)-1-methylpyrrolidin-2-yl)-1H-pyrrolo[3,2-c]pyridin-6-yl)benzamide [Example 47] | B (Category B: 50% ≤ B < 75% degradation) | A (Category A: A ≥ 75% degradation) | C (Category C: 25% ≤ C < 50% degradation)
CN1CCC[C@@H]1c1cc2cnc(NC(=O)c3ccc(-c4ccn(CCCC#Cc5cccc6c5CN(C5CCC(=O)NC5=O)C6=O)n4)cc3)cc2[nH]1 (mixture of isomers) [Example 20, 4-(1-(5-(2-(2,6-dioxopiperidin-3-yl)-1-oxoisoindolin-4-yl)pent-4-yn-1-yl)-1H-pyrazol-3-yl)-N-(2-((R)-1-methylpyrrolidin-2-yl)-1H-pyrrolo[3,2-c]pyridin-6-yl)benzamide] | B (Category B: 50% ≤ B < 75% degradation) | C (Category C: 25% ≤ C < 50% degradation) | B (Category B: 50% ≤ B < 75% degradation)
CN1CCC[C@@H]1c1cc2cnc(NC(=O)N3CCC(CCC#Cc4cccc5c4CN(C4CCC(=O)NC4=O)C5=O)CC3)cc2[nH]1 (stereo partly drawn) [Example 1, 4-(4-(2-(2,6-dioxopiperidin-3-yl)-1-oxoisoindolin-4-yl)but-3-yn-1-yl)-N-(2-((R)-1-methylpyrrolidin-2-yl)-1H-pyrrolo[3,2-c]pyridin-6-yl)piperidine-1-carboxamide] | C (Category C: 25% ≤ C < 50% degradation) | C (Category C: 25% ≤ C < 50% degradation) | C (Category C: 25% ≤ C < 50% degradation)
CN1CCC[C@@H]1c1cc2cnc(NC(=O)c3ccc(N4CCN(CC5CCN(c6cccc7c6C(=O)N(C6CCC(=O)NC6=O)C7=O)CC5)CC4)nc3)cc2[nH]1 (stereo partly drawn) [Example 5, 6-(4-((1-(2-(2,6-dioxopiperidin-3-yl)-1,3-dioxoisoindolin-4-yl)piperidin-4-yl)methyl)piperazin-1-yl)-N-(2-((R)-1-methylpyrrolidin-2-yl)-1H-pyrrolo[3,2-c]pyridin-6-yl)nicotinamide] | A (Category A: A ≥ 75% degradation) | A (Category A: A ≥ 75% degradation) | B (Category B: 50% ≤ B < 75% degradation)

Now from value to compound, other results behind:

MLLT1 % Degradation @ 0.1 µM | MLLT 1 % Degradation @ 1 µM | Compound | MLLT1 % Degradation @ 0.01 µM
A (Category A: A ≥ 75% degradation) | A (Category A: A ≥ 75% degradation) | CN1CCC[C@@H]1c1cc2cnc(NC(=O)c3ccc(OCC#Cc4cccc5c4CN(C4CCC(=O)NC4=O)C5=O)nc3)cc2[nH]1 (stereo partly drawn) [Example 2, 6-((3-(2-(2,6-dioxopiperidin-3-yl)-1-oxoisoindolin-4-yl)prop-2-yn-1-yl)oxy)-N-(2-((R)-1-methylpyrrolidin-2-yl)-1H-pyrrolo[3,2-c]pyridin-6-yl)nicotinamide] | A (Category A: A ≥ 75% degradation)
A (Category A: A ≥ 75% degradation) | A (Category A: A ≥ 75% degradation) | CN1CCC[C@@H]1c1cc2cnc(NC(=O)c3ccc(CC4CCN(c5cccc6c5C(=O)N(C5CCC(=O)NC5=O)C6=O)CC4)cc3)cc2[nH]1 (stereo partly drawn) [Example 3, 4-((1-(2-(2,6-dioxopiperidin-3-yl)-1,3-dioxoisoindolin-4-yl)piperidin-4-yl)methyl)-N-(2-((R)-1-methylpyrrolidin-2-yl)-1H-pyrrolo[3,2-c]pyridin-6-yl)benzamide] | C (Category C: 25% ≤ C < 50% degradation)
A (Category A: A ≥ 75% degradation) | A (Category A: A ≥ 75% degradation) | CN1CCC[C@@H]1c1cc2cnc(NC(=O)c3ccc(CCC4CCN(c5cccc6c5C(=O)N(C5CCC(=O)NC5=O)C6=O)CC4)cc3)cc2[nH]1 (stereo partly drawn) [Example 4, 4-(2-(1-(2-(2,6-dioxopiperidin-3-yl)-1,3-dioxoisoindolin-4-yl)piperidin-4-yl)ethyl)-N-(2-((R)-1-methylpyrrolidin-2-yl)-1H-pyrrolo[3,2-c]pyridin-6-yl)benzamide] | B (Category B: 50% ≤ B < 75% degradation)
